Data on 25 compounds can be found in US8143290B2, “Chemical compounds 572” (AstraZeneca AB, priority 2006, dated 2012).

The structures appear in SMILES notation.

For the assay, the target named is T1, recombinant human GR (Homo sapiens, UniProt P04150).
T1 construct: purchased Panvera/Invitrogen P2812 (kit P2893)
T1 sequence (P04150 1-777): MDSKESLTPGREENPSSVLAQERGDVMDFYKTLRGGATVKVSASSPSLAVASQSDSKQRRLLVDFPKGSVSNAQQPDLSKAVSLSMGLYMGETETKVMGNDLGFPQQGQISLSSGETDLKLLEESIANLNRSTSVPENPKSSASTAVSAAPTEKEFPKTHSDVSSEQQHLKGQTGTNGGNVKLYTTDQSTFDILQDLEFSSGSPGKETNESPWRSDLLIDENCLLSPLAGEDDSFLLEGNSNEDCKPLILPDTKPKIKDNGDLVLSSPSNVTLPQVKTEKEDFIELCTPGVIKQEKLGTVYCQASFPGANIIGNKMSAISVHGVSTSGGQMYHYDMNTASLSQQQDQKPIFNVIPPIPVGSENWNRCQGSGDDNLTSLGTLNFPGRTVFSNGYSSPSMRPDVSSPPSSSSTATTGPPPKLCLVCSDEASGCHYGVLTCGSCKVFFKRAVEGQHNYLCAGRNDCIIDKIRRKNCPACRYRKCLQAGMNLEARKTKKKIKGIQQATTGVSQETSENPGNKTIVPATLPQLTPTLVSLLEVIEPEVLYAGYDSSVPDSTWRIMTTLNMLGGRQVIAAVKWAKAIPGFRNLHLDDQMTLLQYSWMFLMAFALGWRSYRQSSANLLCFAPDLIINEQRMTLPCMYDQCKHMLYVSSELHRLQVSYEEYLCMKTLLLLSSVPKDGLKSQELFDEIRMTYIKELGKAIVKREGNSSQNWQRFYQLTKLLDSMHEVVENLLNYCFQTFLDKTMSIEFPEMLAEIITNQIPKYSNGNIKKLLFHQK
The assay is described as follows: Human Glucocorticoid Receptor (GR) Assay, fluorescence polarization. It is filed as binding. To be noted: GS Red tracer, incubated 2 h at r.t., XLfit model 205, read-out: GRhuFL_FP_v2 Mean IC50. The method in brief: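 After 2 h dark incubation at r.t., polarization reported displacement of the GS Red tracer from recombinant GR, in buffer with phosphate, molybdate, EDTA, DTT and Stabilizing Peptide. Controls: dexamethasone (100%) and DMSO (0%).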
A general note: Fluorescence polarisation rises when a labelled molecule tumbles more slowly, as on binding a larger partner.

A word on the IC50: it is the concentration at which inhibition is half-maximal. In the case of `COc1cccc([C@@H](Oc2ccc3c(cnn3-c3ccc(F)cc3)c2)[C@H](C)NC(=O)c2ccc(Br)s2)c1` [Example 272, 5-bromo-N-[(1R,2S)-1-[1-(4-fluorophenyl)indazol-5-yl]oxy-1-(3-methoxyphenyl)propan-2-yl]thiophene-2-carboxamide], the IC50 is 4.3 nM.
As for `COc1cccc([C@@H](Oc2ccc3c(cnn3-c3ccc(F)cc3)c2)[C@H](C)NC(=O)c2ccc(S(C)(=O)=O)s2)c1` [Example 273, N-[(1R,2S)-1-[1-(4-fluorophenyl)indazol-5-yl]oxy-1-(3-methoxyphenyl)propan-2-yl]-5-methylsulfonyl-thiophene-2-carboxamide], the figure is 7.9 nM; as for `COc1cccc([C@@H](Oc2ccc3c(cnn3-c3ccc(F)cc3)c2)[C@H](C)NC(=O)c2ncc(C)s2)c1` [Example 274, N-[(1R,2S)-1-[1-(4-fluorophenyl)indazol-5-yl]oxy-1-(3-methoxyphenyl)propan-2-yl]-5-methyl-1,3-thiazole-2-carboxamide], 3.9 nM; as for `COc1cccc([C@@H](Oc2ccc3c(cnn3-c3ccc(F)cc3)c2)[C@H](C)NC(=O)c2cc(C#N)cs2)c1` [Example 275, 4-cyano-N-[(1R,2S)-1-[1-(4-fluorophenyl)indazol-5-yl]oxy-1-(3-methoxyphenyl)propan-2-yl]thiophene-2-carboxamide], 4 nM.
The same measure for `COc1cccc([C@@H](Oc2ccc3c(cnn3-c3ccc(F)cc3)c2)[C@H](C)NC(=O)c2ccc(Br)o2)c1` [Example 276, 5-bromo-N-[(1R,2S)-1-[1-(4-fluorophenyl)indazol-5-yl]oxy-1-(3-methoxyphenyl)propan-2-yl]furan-2-carboxamide]: 12 nM; for `COc1cccc([C@@H](Oc2ccc3c(cnn3-c3ccc(F)cc3)c2)[C@H](C)NC(=O)c2nnc(C)o2)c1` [Example 277, N-[(1R,2S)-1-[1-(4-fluorophenyl)indazol-5-yl]oxy-1-(3-methoxyphenyl)propan-2-yl]-5-methyl-1,3,4-oxadiazole-2-carboxamide]: 4.7 nM; for `COc1cccc([C@@H](Oc2ccc3c(cnn3-c3ccc(F)cc3)c2)[C@H](C)NC(=O)c2cc[nH]n2)c1` [Example 279, N-[(1R,2S)-1-[1-(4-fluorophenyl)indazol-5-yl]oxy-1-(3-methoxyphenyl)propan-2-yl]-1H-pyrazole-3-carboxamide]: 3.8 nM.
In the case of `COc1cccc([C@@H](Oc2ccc3c(cnn3-c3ccc(F)cc3)c2)[C@H](C)NC(=O)c2ccon2)c1` [Example 280, N-[(1R,2S)-1-[1-(4-fluorophenyl)indazol-5-yl]oxy-1-(3-methoxyphenyl)propan-2-yl]1,2-oxazole-3-carboxamide], the IC50 was 3.6 nM.
As for `COc1cccc([C@@H](Oc2ccc3c(cnn3-c3ccc(F)cc3)c2)[C@H](C)NC(=O)c2nc[nH]n2)c1` [Example 281, N-[(1R,2S)-1-[1-(4-fluorophenyl)indazol-5-yl]oxy-1-(3-methoxyphenyl)propan-2-yl]-1H-1,2,4-triazole-3-carboxamide], the figure is 3.8 nM; as for `COc1cccc([C@@H](Oc2ccc3c(cnn3-c3ccc(F)cc3)c2)[C@H](C)NC(=O)c2cc(C)[nH]n2)c1` [Example 282, N-[(1R,2S)-1-[1-(4-fluorophenyl)indazol-5-yl]oxy-1-(3-methoxyphenyl)propan-2-yl]-5-methyl-1H-pyrazole-3-carboxamide], 2.4 nM; as for `COc1cccc([C@@H](Oc2ccc3c(cnn3-c3ccc(F)cc3)c2)[C@H](C)NC(=O)c2cn(C)cn2)c1` [Example 283, N-[(1R,2S)-1-[1-(4-fluorophenyl)indazol-5-yl]oxy-1-(3-methoxyphenyl)propan-2-yl]-1-methyl-imidazole-4-carboxamide], 4.7 nM.
As for `COc1cccc([C@@H](Oc2ccc3c(cnn3-c3ccc(F)cc3)c2)[C@H](C)NC(=O)c2cnoc2C)c1` [Example 284, N-[(1R,2S)-1-[1-(4-fluorophenyl)indazol-5-yl]oxy-1-(3-methoxyphenyl)propan-2-yl]-5-methyl-1,2-oxazole-4-carboxamide], the figure is 22 nM.
The same measure for `COc1cccc([C@@H](Oc2ccc3c(cnn3-c3ccc(F)cc3)c2)[C@H](C)NC(=O)c2cc(C)c(C)o2)c1` [Example 286, N-[(1R,2S)-1-[1-(4-fluorophenyl)indazol-5-yl]oxy-1-(3-methoxlphenyl)propan-2-yl]-4,5-dimethyl-furan-2-carboxamide]: 4.7 nM.
In the case of `COc1cccc([C@@H](Oc2ccc3c(cnn3-c3ccc(F)cc3)c2)[C@H](C)NC(=O)c2cc(C)n(C)n2)c1` [Example 287, N-[(1R,2S)-1-[1-(4-fluorophenyl)indazol-5-yl]oxy-1-(3-methoxyphenyl)propan-2-yl]-1,5-dimethyl-pyrazole-3-carboxamide], the IC50 is 4.3 nM.
As for `COc1cccc([C@@H](Oc2ccc3c(cnn3-c3ccc(F)cc3)c2)[C@H](C)NC(=O)c2ncsc2C)c1` [Example 288, N-[(1R,2S)-1-[1-(4-fluorophenyl)indazol-5-yl]oxy-1-(3-methoxyphenyl)propan-2-yl]-5-methyl-1,3-thiazole-4-carboxamide], the figure is 5 nM; as for `COc1cccc([C@@H](Oc2ccc3c(cnn3-c3ccc(F)cc3)c2)[C@H](C)NC(=O)c2scnc2C)c1` [Example 289, N-[(1R,2S)-1-[1-(4-fluorophenyl)indazol-5-yl]oxy-1-(3-methoxyphenyl)propan-2-yl]-4-methyl-1,3-thiazole-5-carboxamide], 3.9 nM; as for `COc1cccc([C@@H](Oc2ccc3c(cnn3-c3ccc(F)cc3)c2)[C@H](C)NC(=O)c2nc(C)cs2)c1` [Example 290, N-[(1R,2S)-1-[1-(4-fluorophenyl)indazol-5-yl]oxy-1-(3-methoxyphenyl)propan-2-yl]-4-methyl-1,3-thiazole-2-carboxamide], 3.1 nM.
The same measure for `COc1cccc([C@@H](Oc2ccc3c(cnn3-c3ccc(F)cc3)c2)[C@H](C)NC(=O)c2cc(C)c(C)s2)c1` [Example 291, N-[(1R,2S)-1-[1-(4-fluorophenyl)indazol-5-yl]oxy-1-(3-methoxyphenyl)propan-2-yl]-4,5-dimethyl-thiophene-2-carboxamide]: 6.4 nM; for `COc1cccc([C@@H](Oc2ccc3c(cnn3-c3ccc(F)cc3)c2)[C@H](C)NC(=O)c2sccc2OC)c1` [Example 292, N-[(1R,2S)-1-[1-(4-fluorophenyl)indazol-5-yl]oxy-1-(3-methoxyphenyl)propan-2-yl]-3-methoxy-thiophene-2-carboxamide]: 5.7 nM; for `COc1cccc([C@@H](Oc2ccc3c(cnn3-c3ccc(F)cc3)c2)[C@H](C)NC(=O)c2cc3ccccn3n2)c1` [Example 293, N-[(1R,2S)-1-[1-(4-fluorophenyl)indazol-5-yl]oxy-1-(3-methoxyphenyl)propan-2-yl]-1,9-diazabicyclo[4.3.0]nona-2,4,6,8-tetraene-8-carboxamide]: 4.4 nM.
The same measure for `COc1cccc([C@@H](Oc2ccc3c(cnn3-c3ccc(F)cc3)c2)[C@H](C)NC(=O)c2nc3ccccc3[nH]2)c1` [Example 294, N-[(1R,2S)-1-[1-(4-fluorophenyl)indazol-5-yl]oxy-1-(3-methoxyphenyl)propan-2-yl]-1H-benzoimidazole-2-carboxamide]: 4.1 nM; for `COc1cccc([C@@H](Oc2ccc3c(cnn3-c3ccc(F)cc3)c2)[C@H](C)NC(=O)c2ccc(Cl)s2)c1` [Example 295, 5-chloro-N-[(1R,2S)-1-[1-(4-fluorophenyl)indazol-5-yl]oxy-1-(3-methoxyphenyl)propan-2-yl]thiophene-2-carboxamide]: 5.7 nM; for `COc1cccc([C@@H](Oc2ccc3c(cnn3-c3ccc(F)cc3)c2)[C@H](C)NC(=O)c2cc3ccccc3s2)c1` [Example 296, N-[(1R,2S)-1-[1-(4-fluorophenyl)indazol-5-yl]oxy-1-(3-methoxyphenyl)propan-2-yl]benzothiophene-2-carboxamide]: 4 nM.
With `COc1cccc([C@@H](Oc2ccc3c(cnn3-c3ccc(F)cc3)c2)[C@H](C)NC(=O)c2nc3ccccc3s2)c1` [Example 297, N-[(1R,2S)-1-[1-(4-fluorophenyl)indazol-5-yl]oxy-1-(3-methoxyphenyl)propan-2-yl]benzothiazole-2-carboxamide], the half-inhibitory concentration (IC50) was 8.6 nM.
For `COc1cccc([C@@H](Oc2ccc3c(cnn3-c3ccc(F)cc3)c2)[C@H](C)NC(=O)c2sc(C(F)(F)F)cc2O)c1` [Example 298, N-[(1R,2S)-1-[1-(4-fluorophenyl)indazol-5-yl]oxy-1-(3-methoxyphenyl)propan-2-yl]-3-hydroxy-5-(trifluoromethyl)thiophene-2-carboxamide], the concentration for half-maximal inhibition (IC50) is 15 nM.
